Results published in patent EP4574175A1, “PRODRUG FOR ANTI-AGING RELATED DISEASES AND USE METHOD THEREFOR” (BEIJING SUNCELL BIO-MEDICAL CO., LTD., priority 2022, dated 2024).

Legend:
[1] = tested on: senescent HEF, HELF, BJ, A549, HUVEC and MRC5 cells; experiment: Cell viability test (CCK-8) on induced senescent cell models, A13 vs A13bGa1; conditions: Figures 3B-3G
Method: (§2) Briefly, the human embryonic skin tissues and the fetal lung tissues obtained from the aborted tissues with the patient's informed consent were minced with the forcep and incubated in 1 mg/ml collagenase IV at 37°C for 1-2 hours. After the enzyme treatment, the cells were collected by centrifugation and resuspended in HEF medium (Dulbecco's modified Eagle medium (DMEM, Gibco) containing 10% fetal bovine serum (FBS, Ausbian), 1% GlutaMAX (Gibco), 1% non-essential amino acids (NEAA, Gibco) and 1% penicillin/streptomycin (Gibco). Gibco). Cells were plated on the 10 cm tissue culture dishes and grown in 10% FBS DMEM. […] They were passaged and cryopreserved according to Lonza's method. A549 cells, BJ cells and MRC5 cells were purchased from ATCC and cultured in DMEM medium containing 10% fetal bovine serum (FBS, Ausbian), and 1% penicillin/streptomycin (Gibco).
(§3) Cell Counting Kit-8 (CCK-8) assay was used to assess the cell viability. The senescent and non-senescent cells or chondrocytes were seeded into the 96-well plates and cultured overnight. The cells were then treated with control (0.05% DMSO) or different concentrations of the drug to be tested. […] Absorbance was measured at the wavelength of 450 nm.

platelets = experiment: In vivo platelet toxicity test; design: species or system C57 mice
Method: (§1) All drugs were mixed in 85% physiological saline, 5% DMSO (Sigma, D8418) and 10% Solutol HS 15 (Sigma, 42966), and administered to mice by intraperitoneal (i.p.) injection. To treat the bleomycin-injured young mice, A13 (2 mg/kg), A13bGa1 (5 mg/kg), or an empty vehicle control was administered three consecutive days per week for four weeks. A1331852 (abbreviated as A13) was purchased from MCE.
A single administration of A13 or A13bG was performed. Female 5-6 week old C57 mice were treated with a single intraperitoneal injection. A13 and A13bG were administered in three different dose groups of 2, 5, and 20 mg/kg. Approximately 50 µl of blood was collected from each mouse at different time points into the EDTA tubes (RAM Scientific) by means of inner canthal blood extraction, and analyzed using a haematology analyzer for a blood routine examination and a platelet counting. Multiple administrations of A13 or A13bG were performed. Female 5-6 week old C57 mice were treated with multiple intraperitoneal injections. A13 and A13bG were administered in three different dose groups of 2, 5 and 20 mg/kg, three consecutive days per week, followed by a 4-day withdrawal for 3 weeks. The time points of administration were in the afternoon of days 0, 1, 2, 7, 8, 9, 14, 15, and 16, and the time points of blood collection and testing were in the morning of days 1, 3, 5, 8, 10, 12, 15, 17, and 19, respectively.
For a blood routine examination, 50 µl of fresh blood was collected from each mouse and immediately mixed with EDTA. Blood samples were analyzed by Celltac Alpha MEK-6400 series haematology analyzer (Nihon Kohden, MEK-6400). Data were expressed as the number of different blood cells or platelets per µl of blood. For the serum biochemical analysis, the blood samples were collected, coagulated for 2 hours at room temperature or overnight at 4°C, and then centrifuged (1000 g, 10 minutes) to obtain serum. A 200 µl of serum was aliquoted and analyzed for alanine aminotransferase (ALT), aspartate aminotransferase (AST), uric acid (UA), and creatinine (CREA) by a chemistry analyzer (Mindray, BS-350E).

[2] = Hepatic microsomal metabolic stability
[3] = tested on: normal cells (HEF, HELF, BJ, A549, HUVEC, MRC5); experiment: Cell viability test (CCK-8) on normal uninduced cells, A13 vs A13bGa1; conditions: compared with parent compound A13
Method: as §2, §3

[4] = tested on: mouse model of Bleomycin-induced pulmonary fibrosis; experiment: Bleomycin-induced pulmonary fibrosis mouse model; assay type: in vivo, C57 mice; conditions: A13 2 mg/kg, A13bGa1 5 mg/kg i.p.
Method: as §1
Bleomycin was purchased from Selleck. […]. Drug treatment was initiated four days after modelling, and the drug was administered three consecutive days per week for four consecutive weeks, after which the mice were executed for material collection.
All animals (including those found dead, dying, and euthanised) were autopsied, and the lung tissues were preserved. The lungs were separated, the fat and other tissues were removed, the surface fluid was absorbed using a filter paper, and the whole lungs were weighed (those found dead, dying, and euthanised) for calculation of the lung weight index. The right lung and bronchiole were fixed in 10% neutral buffered formalin solution, embedded in paraffin, sectioned, prepared into slices, and stained with HE for a histopathological and morphological observation of the lung. The degree of the lesions such as the inflammatory cell infiltration in the lung tissue were graded according to a 4-grade classification (slight, mild, moderate, severe) using a standard terminology for diagnosis and classification. The left lung tissue was clipped and stored temporarily below -60°C. Lung weight index(%) = lung weight/body weight × 100%. [formula]
Masson trichrome stain kit (Solarbio, G1340) was used to detect fibrosis in the lung tissue. The formalin-fixed, and paraffin-embedded lung sections were dewaxed with xylene, and then rehydrated with 100% alcohol, 95% alcohol and distilled water. The sections were then stained according to the manufacturer's instructions. Afterwards, the sections were rapidly dehydrated with 95% alcohol and 100% alcohol, cleaned with xylene and covered with the coverslips. […]

[5] = tested on: mouse model of oxygen-induced retinopathy; experiment: Oxygen-induced retinopathy mouse model; assay type: in vivo, C57BL6/J mice; conditions: single intravitreal injection on postnatal day 12, 50 ng and 100 ng, vs vehicle, IB4 staining at P17
Description: Neonatal C57BL6/J mice were exposed to a 75% hyperoxia chamber (Shanghai Tow-Int Tech Co., Ltd., Ox-100HE) from the 7th to the 12th day after birth, together with the surrogate ICR female mice, and the mice were removed and placed in a normal air environment for feeding after 12 days. Hypoxia-induced abnormal vasoproliferative lesions persisted in the retina of the neonatal mice after they were fed under a hyperoxic condition and then transferred to a normoxic condition. This mouse lesion model mimics the retinal lesion characteristic of some human vision-related diseases, such as proliferative diabetic retinopathy.
Mice on postnatal day 12 were treated with the intravitreal administration of A13bGa1 or vehicle control in each eye of each mouse. […]
The extracted eyeballs of mice were firstly fixed with 4% paraformaldehyde for 1 hour at room temperature. The retina was carefully detached using the micro ophthalmic scissors and the micro forceps, and then placed in the pre-prepared fluorescence-labelled […] IB4 (Vector, FL-1201) staining solution, and stained overnight at 4 degrees Celsius away from light. Retinal sections were made after the completion of staining, and photographed using a confocal fluorescence microscope (Leica, TCS-SP8). Retinal microvascular stained sections were analyzed for the ischaemic areas and the abnormal neovascular areas using ImageJ (NIH, USA).

Cc1c(-c2ccc(N3CCc4cccc(C(=O)Nc5nc6ccccc6s5)c4C3)nc2C(=O)OCc2ccc(O[C@@H]3O[C@H](CO)[C@H](O)[C@H](O)[C@H]3O)c([N+](=O)[O-])c2)cnn1CC12CC3CC(CC(C3)C1)C2 [A13bGa1]
overall killing activity on the senescent cells compared with parent compound [1]: somewhat reduced compared with that of the parent compound A13 | killing of the senescent cells ([1]; skin-derived fibroblasts, lung-derived cells, vascular endothelial-derived cells): highly efficient and selective in killing the senescent cells | toxic effects on the platelets (platelets; multiple rounds i.p., 3 consecutive days per week for 3 weeks, 2, 5 and 20 mg/kg): significantly reduced | platelet-destroying effect (platelets; single intraperitoneal administration, 20 mg/kg): strong platelet-destroying effect only at the higher dose of 20 mg/kg | toxicity to the platelets (platelets; single intraperitoneal administration, 2, 5 and 20 mg/kg): significantly less toxic to the platelets than the parent compound A13 | CLint scaled [2]: 17.9 mL/min/kg | The hepatic extraction ratio (E) ([2]; human): 0.86 | toxicity to the normal cells [3]: greatly reduced | pathological manifestations of the pulmonary fibrosis (Masson staining) [4]: improved | lung index ([4]; 3 consecutive days per week for 4 weeks): recovered to the normal level | inflammation and consolidation of the mouse lungs (pathological sections) ([4]; HE staining): significant improvement | area of the abnormal neovascular area [5]: significantly reduced | area of the ischemic lesion area of the retina center [5]: significantly reduced
